The record followed here is US12264158B2, “Protein kinase MKK4 inhibitors for promoting liver regeneration or reducing or preventing hepatocyte death” (HEPAREGENIX GMBH, priority 2018, dated 2025).

For assay [1], the target named is T1, JNK1 (Homo sapiens, UniProt P45983).
T1 construct: M1/Q384; host or cells: HEK-293
As to the kind of experiment: KINOMEscan competition binding assay, selectivity against off-target JNK1. The conditions noted are these: concentration of 100 nM. In short, it runs like this: (§1)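 DNA-tagged kinases expressed in HEK-293 cells compete between test compound and immobilized ligand on blocked beads. Bound kinase is eluted and quantified by qPCR of the DNA tag. Compounds were tested at the indicated final concentrations, prepared from 10 mM stocks.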

Assay [2] concerns the target T2, MKK4-MEKK2 mix (Homo sapiens, UniProt P45985).
T2 construct: MEKK2, recombinant, active: ProQinase product #0583-0000-1
T2 sequence (P45985 2-399): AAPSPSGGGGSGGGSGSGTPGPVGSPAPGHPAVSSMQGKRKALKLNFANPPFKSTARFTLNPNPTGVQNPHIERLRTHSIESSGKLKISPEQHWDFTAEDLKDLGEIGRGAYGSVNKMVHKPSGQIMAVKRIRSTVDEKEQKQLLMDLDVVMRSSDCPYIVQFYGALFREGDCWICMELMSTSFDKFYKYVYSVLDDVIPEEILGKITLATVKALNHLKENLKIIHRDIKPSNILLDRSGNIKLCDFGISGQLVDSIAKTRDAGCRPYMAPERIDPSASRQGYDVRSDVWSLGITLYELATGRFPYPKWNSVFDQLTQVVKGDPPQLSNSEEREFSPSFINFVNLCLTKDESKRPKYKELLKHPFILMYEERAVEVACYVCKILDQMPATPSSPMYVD
The assay is described as follows: Radiometric protein kinase assay, MEKK2 dependent MKK4 activation (cascade). As to conditions: substrate JNK1 KRKR, ATP 0.2 μM, read-out: Cascade, potency derived from IC50-values. The assay is classed as biochemical. In short, it runs like this: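 MKK4 (1 μM) was activated by MEKK2 (50 nM) in 50 mM HEPES pH 7.5, 50 mM NaCl, 3.8 mM MgCl2, 2.5 mM DTT and 10% glycerol with ATP, in the presence of compound at 1% final DMSO. Kinase activity was measured radiometrically by filter capture, H3PO4 washes and scintillation counting.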

The target in assay [3] is T3, MKK4 (Homo sapiens, UniProt P45985).
T3 construct: S84/D399; host or cells: HEK-293
T3 sequence (P45985 84-399): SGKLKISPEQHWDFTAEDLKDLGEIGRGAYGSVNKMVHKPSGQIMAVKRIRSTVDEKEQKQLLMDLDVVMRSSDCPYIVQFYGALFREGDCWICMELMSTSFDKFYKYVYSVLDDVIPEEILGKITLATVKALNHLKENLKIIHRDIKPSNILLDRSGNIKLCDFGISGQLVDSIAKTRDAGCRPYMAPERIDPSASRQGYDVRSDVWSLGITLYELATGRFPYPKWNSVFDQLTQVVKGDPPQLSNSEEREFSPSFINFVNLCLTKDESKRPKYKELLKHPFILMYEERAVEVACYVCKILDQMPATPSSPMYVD
The assay is described as follows: KINOMEscan competition binding assay, MKK4 potency. As to conditions: concentration of 100 nM. In outline:
as §1

For assay [4], the target named is T4, MKK4 active (Homo sapiens, UniProt P45985).
T4 construct: purchased ProQinase #0948-0000-1
T4 sequence (P45985 1-399): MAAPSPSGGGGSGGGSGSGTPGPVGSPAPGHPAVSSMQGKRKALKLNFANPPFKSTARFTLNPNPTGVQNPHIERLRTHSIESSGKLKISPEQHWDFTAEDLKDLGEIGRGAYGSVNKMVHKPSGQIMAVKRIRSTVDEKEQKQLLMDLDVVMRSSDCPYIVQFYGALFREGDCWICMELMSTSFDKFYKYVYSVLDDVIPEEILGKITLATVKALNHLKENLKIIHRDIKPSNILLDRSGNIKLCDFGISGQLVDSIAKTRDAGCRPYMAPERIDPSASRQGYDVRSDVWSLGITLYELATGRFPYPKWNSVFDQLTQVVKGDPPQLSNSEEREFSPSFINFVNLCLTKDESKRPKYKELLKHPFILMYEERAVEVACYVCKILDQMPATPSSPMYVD
As to the kind of experiment: Radiometric protein kinase assay, MKK4 active. The assay is classed as biochemical. As to conditions: substrate JNK1 KRKR, ATP 0.2 μM, read-out: MKK4, potency derived from IC50-values. In short, it runs like this: (§2)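 Kinase activity measured radiometrically: stopped reactions were captured on filter plates, washed with 150 mM H3PO4 and ethanol, and incorporated radioactivity counted by liquid scintillation.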

In assay [5] the target is T5, MEKK2 (Homo sapiens, UniProt Q9Y2U5).
T5 construct: purchased ProQinase #0583-0000-1
T5 sequence (Q9Y2U5 1-619): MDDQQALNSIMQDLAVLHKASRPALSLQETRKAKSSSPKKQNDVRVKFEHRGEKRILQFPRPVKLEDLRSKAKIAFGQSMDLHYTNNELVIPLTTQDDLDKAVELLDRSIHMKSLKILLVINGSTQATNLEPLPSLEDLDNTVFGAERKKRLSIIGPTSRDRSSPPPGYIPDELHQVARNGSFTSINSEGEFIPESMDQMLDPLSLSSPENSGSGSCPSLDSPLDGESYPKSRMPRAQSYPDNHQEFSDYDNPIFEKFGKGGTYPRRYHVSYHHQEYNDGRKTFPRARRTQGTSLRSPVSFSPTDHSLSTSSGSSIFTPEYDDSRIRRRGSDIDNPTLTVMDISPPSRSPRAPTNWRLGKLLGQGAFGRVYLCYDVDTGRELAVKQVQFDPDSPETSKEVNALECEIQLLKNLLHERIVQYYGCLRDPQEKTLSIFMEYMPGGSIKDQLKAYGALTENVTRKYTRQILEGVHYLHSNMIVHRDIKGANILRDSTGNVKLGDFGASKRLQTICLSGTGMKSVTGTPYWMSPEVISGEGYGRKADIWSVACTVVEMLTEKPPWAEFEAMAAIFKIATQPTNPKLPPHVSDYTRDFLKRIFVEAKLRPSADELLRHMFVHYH
As to the kind of experiment: Radiometric protein kinase assay, MEKK2. The class given is biochemical. As to conditions: substrate Casein, ATP 0.2 μM; read-out: MEKK2, potency derived from IC50-values. In short, it runs like this: as §2

In assay [6] the target is BRaf (Homo sapiens, UniProt P15056). As to the kind of experiment: KINOMEscan competition binding assay, selectivity against off-target BRaf. The conditions noted are these: concentration of 100 nM. In outline:
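Competition binding: test compound competes with an immobilized ligand for DNA-tagged BRaf, and kinase captured on the ligand is quantified by qPCR of the DNA tag. Compounds from 10 mM stocks were tested at the indicated final concentrations.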

The target of assay [7] is T6, MKK7 (Homo sapiens, UniProt O14733).
T6 construct: M1/R419; host or cells: HEK-293
T6 sequence (O14733 1-419): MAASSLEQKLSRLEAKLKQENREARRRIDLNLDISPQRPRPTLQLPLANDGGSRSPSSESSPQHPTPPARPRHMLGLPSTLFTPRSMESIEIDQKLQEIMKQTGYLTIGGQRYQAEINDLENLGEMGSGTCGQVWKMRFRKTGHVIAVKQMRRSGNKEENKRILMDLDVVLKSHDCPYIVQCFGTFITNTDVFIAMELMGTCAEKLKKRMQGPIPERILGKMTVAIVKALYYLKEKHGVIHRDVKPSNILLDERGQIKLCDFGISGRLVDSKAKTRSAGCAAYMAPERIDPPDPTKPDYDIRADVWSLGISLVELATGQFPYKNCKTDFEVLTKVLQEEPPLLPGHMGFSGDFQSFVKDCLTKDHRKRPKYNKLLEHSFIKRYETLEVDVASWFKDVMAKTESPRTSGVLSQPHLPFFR
The assay is described as follows: KINOMEscan competition binding assay, selectivity against off-target MKK7. As to conditions: concentration of 100 nM. In outline: as §1

SMILES strings stand for the structures.

T1 sequence (P45983 1-384 isoform P45983-2): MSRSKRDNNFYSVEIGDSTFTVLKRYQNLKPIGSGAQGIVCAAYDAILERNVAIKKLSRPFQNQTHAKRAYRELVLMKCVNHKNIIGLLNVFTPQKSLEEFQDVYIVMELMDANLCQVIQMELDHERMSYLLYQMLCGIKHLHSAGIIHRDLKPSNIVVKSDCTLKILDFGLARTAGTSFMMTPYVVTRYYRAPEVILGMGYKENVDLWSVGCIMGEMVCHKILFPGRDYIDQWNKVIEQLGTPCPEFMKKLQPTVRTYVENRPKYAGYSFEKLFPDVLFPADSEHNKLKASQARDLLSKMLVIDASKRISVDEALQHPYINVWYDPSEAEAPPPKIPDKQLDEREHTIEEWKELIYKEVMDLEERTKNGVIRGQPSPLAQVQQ
Sequence of BRaf (P15056 whole entry): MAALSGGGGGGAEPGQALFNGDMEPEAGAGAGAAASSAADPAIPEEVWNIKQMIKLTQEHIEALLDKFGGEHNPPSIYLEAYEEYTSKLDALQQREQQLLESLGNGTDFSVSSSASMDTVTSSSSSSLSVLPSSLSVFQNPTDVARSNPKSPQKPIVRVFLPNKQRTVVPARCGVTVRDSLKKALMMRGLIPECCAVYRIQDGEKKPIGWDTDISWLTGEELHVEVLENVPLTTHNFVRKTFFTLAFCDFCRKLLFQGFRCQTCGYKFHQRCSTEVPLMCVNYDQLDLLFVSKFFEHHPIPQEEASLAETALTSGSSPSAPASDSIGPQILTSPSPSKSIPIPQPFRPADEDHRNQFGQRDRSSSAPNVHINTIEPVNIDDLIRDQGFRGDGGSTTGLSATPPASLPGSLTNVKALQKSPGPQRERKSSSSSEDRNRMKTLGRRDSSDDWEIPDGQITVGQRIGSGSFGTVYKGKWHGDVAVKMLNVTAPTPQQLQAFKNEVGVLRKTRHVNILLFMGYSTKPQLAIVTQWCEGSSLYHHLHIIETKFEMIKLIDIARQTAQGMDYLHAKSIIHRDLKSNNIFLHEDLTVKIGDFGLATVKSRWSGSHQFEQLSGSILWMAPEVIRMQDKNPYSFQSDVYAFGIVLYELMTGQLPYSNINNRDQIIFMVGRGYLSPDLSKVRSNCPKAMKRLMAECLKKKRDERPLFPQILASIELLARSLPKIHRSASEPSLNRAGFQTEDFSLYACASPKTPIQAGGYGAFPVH

As to `CCCS(=O)(=O)Nc1ccc(F)c(C(=O)c2n[nH]c3ncc(-c4ccc(S(=O)(=O)NCC(O)CO)cc4)cc23)c1F` (stereo not shown) [Example 51j, 4-(3-(2,6-difluoro-3-(propylsulfonamido)benzoyl)-1H-pyrazolo[3,4-b]pyridin-5-yl)-N-(2,3-dihydroxypropyl)benzenesulfonamide], the “Selectivity vs. JNK1, ratio PoC(JNK1)/PoC(MKK4)” value in assay [1] was “+++ (PoC(JNK1)/PoC(MKK4) ≥ 30)”. Besides, the IC50 – broadly, the concentration that gives 50% inhibition – in assay [2] was 1 to 10 µM; in assay [4] it was less than 0.5 µM; in assay [5], greater than 10 µM. In addition, the “MKK4, residual percent of control binding (PoC)” value in assay [3] was “++ (1 ≤ PoC < 10)”. The “Selectivity vs. BRaf, ratio PoC(BRaf)/PoC(MKK4)” value in assay [6] is “O (PoC(BRaf)/PoC(MKK4) < 3)”. The “Selectivity vs. MKK7, ratio PoC(MKK7)/PoC(MKK4)” value in assay [7] is reported as “+++ (PoC(MKK7)/PoC(MKK4) ≥ 30)”.
